Test results taken from ChEMBL document CHEMBL1201862, “PubChem BioAssay data set” (2004).
Active and inactive are the calls of the source.

Columns and labels:
[1] = A Cell Based Secondary Assay To Explore Cytotoxicity of Compounds that Sensitize Mycobacterium Tuberculosis to Beta-Lactam Antibiotics.; assay type: functional
[2] = target: T1, Ubiquitin-conjugating enzyme E2 N (Homo sapiens, UniProt P61088); assay type: functional;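 note: Dose-response confirmation in a TR-FRET assay detecting UBC13-driven polyubiquitin chain formation, inhibition measured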
T1 sequence (P61088 whole entry): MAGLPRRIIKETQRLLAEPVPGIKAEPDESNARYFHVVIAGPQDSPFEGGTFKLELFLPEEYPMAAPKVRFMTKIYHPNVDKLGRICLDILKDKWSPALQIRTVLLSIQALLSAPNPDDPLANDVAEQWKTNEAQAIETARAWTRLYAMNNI

[3] = target: T2, DNA repair protein RAD52 homolog (Homo sapiens, UniProt P43351); assay type: functional, biochemical
T2 sequence (P43351 whole entry): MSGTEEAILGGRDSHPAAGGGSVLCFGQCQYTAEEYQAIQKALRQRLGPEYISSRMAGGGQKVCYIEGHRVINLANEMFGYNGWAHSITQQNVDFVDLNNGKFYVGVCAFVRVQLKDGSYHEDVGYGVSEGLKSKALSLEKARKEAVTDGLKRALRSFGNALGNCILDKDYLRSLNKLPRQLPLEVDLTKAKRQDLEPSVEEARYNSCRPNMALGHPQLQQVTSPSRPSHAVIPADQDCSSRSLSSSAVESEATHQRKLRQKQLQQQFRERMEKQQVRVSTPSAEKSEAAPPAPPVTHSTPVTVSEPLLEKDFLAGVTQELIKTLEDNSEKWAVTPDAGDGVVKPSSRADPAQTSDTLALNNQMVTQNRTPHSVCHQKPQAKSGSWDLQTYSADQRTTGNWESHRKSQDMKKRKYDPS

[4] = HGIII-sPLA2 enzyme inhibition potency – biochemical, QFRET, IC50, dose response (AID 743457);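 note: green fluorescence rise as the enzyme cleaves BODIPY PC-A2 in liposomes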
[5] = target: T3, Estrogen receptor (Homo sapiens, UniProt P03372);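 note: potency for inhibiting coactivator peptide recruitment to the receptor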
T3 sequence (P03372 whole entry): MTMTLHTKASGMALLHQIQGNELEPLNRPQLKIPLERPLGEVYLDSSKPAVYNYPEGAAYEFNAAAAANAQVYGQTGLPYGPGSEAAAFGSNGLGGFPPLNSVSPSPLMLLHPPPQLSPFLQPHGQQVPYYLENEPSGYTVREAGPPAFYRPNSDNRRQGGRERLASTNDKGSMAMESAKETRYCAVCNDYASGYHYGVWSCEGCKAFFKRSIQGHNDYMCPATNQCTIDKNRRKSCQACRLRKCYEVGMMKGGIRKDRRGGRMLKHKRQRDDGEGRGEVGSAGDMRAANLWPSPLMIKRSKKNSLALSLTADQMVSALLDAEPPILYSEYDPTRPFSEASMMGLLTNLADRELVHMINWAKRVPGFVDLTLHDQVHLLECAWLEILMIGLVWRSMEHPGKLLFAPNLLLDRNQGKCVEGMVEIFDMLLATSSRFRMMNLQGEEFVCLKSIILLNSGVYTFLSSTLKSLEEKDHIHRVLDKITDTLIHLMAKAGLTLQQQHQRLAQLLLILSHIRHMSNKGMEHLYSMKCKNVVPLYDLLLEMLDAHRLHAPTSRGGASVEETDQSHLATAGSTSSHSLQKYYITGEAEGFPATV

[6] = target: T4, Mannose-6-phosphate isomerase (Homo sapiens, UniProt P34949); test: MPI inhibition at elevated mannose 6-phosphate – biochemical, fluorescence intensity, high mannose 6-phosphate, primary screen (AID 1220)
T4 sequence (P34949 whole entry): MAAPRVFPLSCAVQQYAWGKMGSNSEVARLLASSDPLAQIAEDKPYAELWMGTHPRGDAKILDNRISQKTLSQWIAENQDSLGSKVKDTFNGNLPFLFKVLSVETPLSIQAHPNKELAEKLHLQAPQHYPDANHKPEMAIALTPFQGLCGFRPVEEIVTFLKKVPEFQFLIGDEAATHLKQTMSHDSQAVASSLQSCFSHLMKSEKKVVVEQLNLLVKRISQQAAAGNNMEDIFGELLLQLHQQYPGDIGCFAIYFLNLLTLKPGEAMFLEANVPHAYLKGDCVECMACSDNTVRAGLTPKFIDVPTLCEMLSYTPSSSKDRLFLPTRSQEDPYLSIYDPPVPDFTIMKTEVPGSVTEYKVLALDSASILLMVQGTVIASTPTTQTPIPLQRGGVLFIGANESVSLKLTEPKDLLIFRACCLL

[7] = target: Cytochrome P450 2C19 (Homo sapiens, UniProt P33261); test: Cytochrome panel assay with activity outcomes. Panel member name: p450-cyp2c19 Compounds with AC50 equal or less than 10 uM are considered active; assay type: functional; settings: read-out: AC50
[8] = target: T5, Coagulation factor XII (Homo sapiens, UniProt P00748); assay type: functional;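 note: activated factor XIIa alpha cleaving a fluorogenic AMC peptide substrate; inhibitor potency from loss of enzyme activity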
T5 sequence (P00748 whole entry): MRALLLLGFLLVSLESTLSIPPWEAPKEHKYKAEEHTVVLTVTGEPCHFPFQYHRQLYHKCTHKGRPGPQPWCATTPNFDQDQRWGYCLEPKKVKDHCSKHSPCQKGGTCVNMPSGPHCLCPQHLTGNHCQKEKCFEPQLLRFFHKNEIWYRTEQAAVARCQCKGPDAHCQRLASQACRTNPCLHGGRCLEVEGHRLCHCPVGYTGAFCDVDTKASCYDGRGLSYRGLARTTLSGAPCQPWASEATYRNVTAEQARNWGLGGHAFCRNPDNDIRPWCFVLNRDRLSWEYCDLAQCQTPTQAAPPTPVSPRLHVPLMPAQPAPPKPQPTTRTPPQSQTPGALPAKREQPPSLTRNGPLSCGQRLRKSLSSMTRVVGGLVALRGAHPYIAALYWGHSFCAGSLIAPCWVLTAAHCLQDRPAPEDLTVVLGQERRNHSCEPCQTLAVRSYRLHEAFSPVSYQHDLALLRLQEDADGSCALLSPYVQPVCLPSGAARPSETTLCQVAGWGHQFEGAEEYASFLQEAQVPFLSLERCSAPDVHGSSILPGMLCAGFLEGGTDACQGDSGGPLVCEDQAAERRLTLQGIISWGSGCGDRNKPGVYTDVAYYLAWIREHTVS

[9] = intracellular Trypanosoma cruzi inhibitors in host cells – cell-based, plate reader, cherry-pick samples, set 3, dose response (AID 651818); assay type: functional;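 note: compounds incubated with infected cells for about four days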
[10] = target: Paired box protein Pax-8 (Homo sapiens, UniProt Q06710); test: PAX8 transcriptional activity inhibition in RMG-I – RMG-I cells, luciferase, cherry-pick, dose response (AID 687027); assay type: functional, cell-based;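 note: luciferase reporter driven by Pax8 target thyroperoxidase promoter measured by SteadyGlo luminescence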
[11] = IGROV1 cell killing – plate reader, dry powder samples, PAX8 inhibitor project, dose response (AID 743043); assay type: functional, cell-based; settings: IGROV-1
[12] = target: Estrogen receptor beta (Homo sapiens, UniProt Q92731);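 note: recombinant ER-beta bound to coactivator SRC1 peptide in presence of estradiol agonist; inhibitors block coactivator peptide binding and lower the FRET signal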
[13] = target: Induced myeloid leukemia cell differentiation protein Mcl-1 (Homo sapiens, UniProt Q07820); assay type: functional
[14] = system: Streptococcus sp. 'group A'; test: Streptococcus pyogenes SK(-)GAS viability under kanamycin – luminescence, BacTiterGlo, confirmation, counter-screen for streptokinase expression inhibitor project, dose response (AID 1900); assay type: functional, organism-based
[15] = target: T6, Streptokinase A (Streptococcus pyogenes serotype M1, UniProt P10520); test: viability-normalized secreted streptokinase activity reduction – plasminogen activation absorbance, OD405, dose response (AID 1914); assay type: functional, Streptococcus pyogenes M1 GAS;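 note: secreted streptokinase activity via plasminogen activation per viability signal from cell pellet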
T6 sequence (P10520 whole entry): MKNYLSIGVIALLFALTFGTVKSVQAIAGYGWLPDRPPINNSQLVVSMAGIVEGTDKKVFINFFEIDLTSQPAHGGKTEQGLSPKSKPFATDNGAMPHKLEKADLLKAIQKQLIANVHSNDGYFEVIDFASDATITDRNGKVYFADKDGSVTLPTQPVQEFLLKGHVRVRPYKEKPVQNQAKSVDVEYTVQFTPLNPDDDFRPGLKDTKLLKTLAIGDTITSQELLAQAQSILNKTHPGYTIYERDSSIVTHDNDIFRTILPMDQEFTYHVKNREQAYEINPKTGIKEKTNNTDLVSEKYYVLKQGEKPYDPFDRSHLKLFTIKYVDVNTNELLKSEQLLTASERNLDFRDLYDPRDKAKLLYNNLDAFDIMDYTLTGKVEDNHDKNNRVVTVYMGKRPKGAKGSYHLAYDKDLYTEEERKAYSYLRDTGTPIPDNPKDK

[16] = system: Streptococcus; test: GAS UMAA2166 growth inhibition – luminescence, BacTiterGlo, counter-screen for streptokinase expression inhibitor project, dose response (AID 1915); assay type: functional, organism-based;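 note: potency for reduction of bacterial viability or growth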
[17] = microbe, parasite or virus in culture; assay type: functional; settings: Mycobacterium tuberculosis
[18] = Luminescence Cell-Based Dose Retest to Confirm Inhibitors of Cancer Stem Cells. [Related pubchem assays (depositor defined):AID2717, AID2721]; assay type: functional; settings: Homo sapiens
[19] = system: INS1; test: INS-1E survival protection against cytokine death – cell-based, luminescence, retest, dose response (AID 449756); assay type: functional; settings: Rattus norvegicus;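 note: cell death triggered by IL-1 beta plus TNF-alpha plus IFN-gamma mixture; protective hits raise ATP signal compared with cytokine alone wells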
[20] = target: Large T antigen (Simian virus 40, UniProt P03070); assay type: functional, Betapolyomavirus macacae;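 note: Confirmatory-stage PubChem screen for compounds that inhibit SV40 T antigen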
Large T antigen, sequence (P03070 whole entry): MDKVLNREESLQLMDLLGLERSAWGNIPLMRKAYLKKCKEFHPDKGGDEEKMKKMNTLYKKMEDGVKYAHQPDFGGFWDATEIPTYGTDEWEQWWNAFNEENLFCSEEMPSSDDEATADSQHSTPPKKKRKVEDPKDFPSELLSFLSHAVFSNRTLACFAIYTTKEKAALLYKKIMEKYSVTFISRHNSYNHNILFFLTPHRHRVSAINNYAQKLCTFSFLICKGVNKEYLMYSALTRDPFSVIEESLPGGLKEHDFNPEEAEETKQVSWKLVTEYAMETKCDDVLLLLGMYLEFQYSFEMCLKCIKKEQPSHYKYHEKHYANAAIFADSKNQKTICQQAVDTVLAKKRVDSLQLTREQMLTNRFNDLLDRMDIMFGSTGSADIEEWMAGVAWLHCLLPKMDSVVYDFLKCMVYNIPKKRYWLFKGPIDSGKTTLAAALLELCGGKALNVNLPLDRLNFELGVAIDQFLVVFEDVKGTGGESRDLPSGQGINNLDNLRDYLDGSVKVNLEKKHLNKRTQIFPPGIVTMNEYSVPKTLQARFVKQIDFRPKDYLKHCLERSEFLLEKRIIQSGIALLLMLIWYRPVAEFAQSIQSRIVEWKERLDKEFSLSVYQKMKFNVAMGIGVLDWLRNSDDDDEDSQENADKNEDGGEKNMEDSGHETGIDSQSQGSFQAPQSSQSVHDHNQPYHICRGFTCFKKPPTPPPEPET

Estrogen receptor beta, sequence (Q92731 whole entry): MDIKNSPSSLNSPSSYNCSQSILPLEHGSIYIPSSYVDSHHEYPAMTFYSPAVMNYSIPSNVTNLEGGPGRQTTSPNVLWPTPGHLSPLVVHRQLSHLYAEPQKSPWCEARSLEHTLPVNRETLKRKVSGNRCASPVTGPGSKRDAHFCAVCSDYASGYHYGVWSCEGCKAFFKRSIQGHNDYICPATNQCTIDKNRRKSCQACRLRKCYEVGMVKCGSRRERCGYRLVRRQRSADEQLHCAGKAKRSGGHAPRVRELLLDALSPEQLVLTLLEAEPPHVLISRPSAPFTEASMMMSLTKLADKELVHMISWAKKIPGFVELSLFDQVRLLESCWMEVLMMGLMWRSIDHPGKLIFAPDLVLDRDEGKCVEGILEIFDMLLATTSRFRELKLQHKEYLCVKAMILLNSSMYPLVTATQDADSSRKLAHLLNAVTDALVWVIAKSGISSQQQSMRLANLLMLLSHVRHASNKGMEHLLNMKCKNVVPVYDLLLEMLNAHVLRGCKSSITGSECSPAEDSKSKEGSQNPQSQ
Induced myeloid leukemia cell differentiation protein Mcl-1, sequence (Q07820 whole entry): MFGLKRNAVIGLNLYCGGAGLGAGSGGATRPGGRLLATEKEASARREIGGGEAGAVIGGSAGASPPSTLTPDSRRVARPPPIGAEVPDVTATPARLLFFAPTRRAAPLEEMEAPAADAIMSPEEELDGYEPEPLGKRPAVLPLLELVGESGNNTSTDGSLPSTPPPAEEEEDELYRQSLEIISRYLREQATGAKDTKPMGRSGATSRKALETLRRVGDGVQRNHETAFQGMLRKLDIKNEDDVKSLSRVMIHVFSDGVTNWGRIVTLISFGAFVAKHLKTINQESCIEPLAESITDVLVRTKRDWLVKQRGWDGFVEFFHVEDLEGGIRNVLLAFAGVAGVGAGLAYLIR
Paired box protein Pax-8, sequence (Q06710 whole entry): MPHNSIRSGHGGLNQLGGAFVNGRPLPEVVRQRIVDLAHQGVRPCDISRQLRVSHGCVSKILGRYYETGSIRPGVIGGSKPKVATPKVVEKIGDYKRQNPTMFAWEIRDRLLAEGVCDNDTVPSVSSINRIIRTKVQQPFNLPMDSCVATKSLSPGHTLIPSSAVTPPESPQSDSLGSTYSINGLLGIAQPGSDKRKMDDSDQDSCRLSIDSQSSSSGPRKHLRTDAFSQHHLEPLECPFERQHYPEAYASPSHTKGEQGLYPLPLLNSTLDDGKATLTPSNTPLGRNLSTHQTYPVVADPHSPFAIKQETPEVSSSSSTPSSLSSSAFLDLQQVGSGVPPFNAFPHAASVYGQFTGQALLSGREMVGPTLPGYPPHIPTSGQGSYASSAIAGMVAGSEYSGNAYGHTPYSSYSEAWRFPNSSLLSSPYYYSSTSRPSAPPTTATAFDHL
Cytochrome P450 2C19, sequence (P33261 whole entry): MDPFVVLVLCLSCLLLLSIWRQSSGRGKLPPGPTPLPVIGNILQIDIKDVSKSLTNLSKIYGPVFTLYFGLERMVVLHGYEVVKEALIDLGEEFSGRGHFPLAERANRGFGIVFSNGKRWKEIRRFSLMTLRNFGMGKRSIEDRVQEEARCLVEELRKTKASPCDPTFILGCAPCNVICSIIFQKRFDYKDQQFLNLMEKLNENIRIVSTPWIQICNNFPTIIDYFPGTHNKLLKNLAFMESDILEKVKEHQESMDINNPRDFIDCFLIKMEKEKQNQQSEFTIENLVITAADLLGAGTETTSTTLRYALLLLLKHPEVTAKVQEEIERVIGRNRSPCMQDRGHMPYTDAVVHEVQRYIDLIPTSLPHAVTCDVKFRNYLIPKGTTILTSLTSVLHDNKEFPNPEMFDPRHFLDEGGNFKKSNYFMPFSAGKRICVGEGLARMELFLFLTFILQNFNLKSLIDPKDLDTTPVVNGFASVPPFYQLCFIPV

## Cc1cc(C)cc(OCC(=O)NNC(=O)c2ccccn2)c1
[1]
  CC50: 11.4 µM (active)
[2]
  IC50: > 20 µM (inactive)

## COc1ccc2c(c1)c[n+](C)c1c3cc(OC)c(OC)cc3ccc21
[3]
  AC50: 0.558 µM (active)
[4]
  IC50: > 122 µM (inactive)

## CCOC(=O)c1c(C)oc2c1c(/C=N/C1CCS(=O)(=O)C1)c(O)c1ccccc12 (stereo not given)
[5]
  IC50: 16 µM (active)
[6]
  IC50: > 50 µM (not active)
[7]
  AC50: 1.78 µM (inconclusive)

## Cc1ccc(C)c(NC(=O)CN(C)C(=O)CCN2C(=O)c3ccccc3C2=O)c1
[8]
  IC50: > 50 µM (inactive)

## CN(C)CC(=O)N1c2ccccc2CCc2ccc(NC(=O)c3ccc(N)cc3)cc21
[5]
  IC50: 15.6 µM (active)

## COC(=O)C(C)NC(=O)C1CCCN1S(=O)(=O)c1cc(C)c(Cl)cc1C (stereo not given)
[8]
  IC50: > 50 µM (inactive)

## Nc1cccc(Nc2nc(OC(C(F)(F)F)C(F)(F)F)nc(OC(C(F)(F)F)C(F)(F)F)n2)c1
[4]
  IC50: > 122 µM (inactive)

## Cc1ccc(S(=O)(=O)Nc2ccc3c(c2)C(=O)N([C@H](C)CO)C[C@H](C)[C@H](CN(C)Cc2ccc(C(=O)Nc4ccccc4N)cc2)OCCCC[C@@H](C)O3)cc1
[9]
  AC50: 2.44 µM (active)

## C[C@@H]1CN([C@H](C)CO)C(=O)c2cc(NC(=O)Nc3ccc(F)cc3)ccc2O[C@@H](C)CCCCO[C@H]1CN(C)C(=O)C1CCCCC1
[10]
  AC50: 5.55 µM (active)
[11]
  AC50: 50.3 µM (active)

## O=C(C1=C[C@H](c2ccc(Br)cc2)C[C@H](OCc2ccc(CO)cc2)O1)N1CCN(Cc2ccc3c(c2)OCO3)CC1
[1]
  CC50: 32 µM (active)

## COc1ccc(S(=O)(=O)Nc2ccc3c(c2)C(=O)N([C@H](C)CO)C[C@H](C)[C@H](CN(C)C(=O)Nc2ccc(C(F)(F)F)cc2)OCCCC[C@@H](C)O3)cc1
[9]
  AC50: 2.64 µM (active)

## CCOC(=O)C(=NC(C)CC)NNc1cccc(C(F)(F)F)c1 (stereo not given)
[4]
  IC50: > 122 µM (inactive)

## N#CCCS(=O)(=O)c1nnnn1-c1ccccc1
[5]
  IC50: > 50 µM (not active)
[12]
  IC50: > 50 µM (not active)

## Cn1cc(C(=O)N/N=C/c2ccc([N+](=O)[O-])cc2)c2ccccc21
[13]
  IC50: 1.94 µM (active)

## CCOc1cc(NC(=O)c2ccc(C)cc2)c(OCC)cc1N=C(S)NCCCN1CCOCC1
[8]
  IC50: > 50 µM (inactive)

## Cc1ccc(S(=O)(=O)Nc2cccc3c2O[C@@H](CN(C)Cc2ccc(-c4ccccc4)cc2)[C@@H](C)CN([C@H](C)CO)C3=O)cc1
[9]
  AC50: 3.16 µM (active)

## Cc1ccccc1-c1ccc([C@@H]2[C@@H](CO)N3CCCCN(C(=O)NC4CCCC4)C[C@H]23)cc1
[10]
  AC50: 21.6 µM (active)
[11]
  AC50: 52.2 µM (active)

## c1ccc(CNC2=NN=C(c3cc4ccccc4o3)CS2)cc1
[13]
  IC50: 2.66 µM (not active)

## CCc1nnc(NC(=O)C2Cc3ccccc3CN2S(=O)(=O)c2cccs2)s1 (stereo not given)
[5]
  IC50: > 50 µM (not active)

## Cc1ccc(NC(S)=NNC(=O)c2nnn(-c3ccccc3)c2C)cc1
[4]
  IC50: > 122 µM (inactive)

## CCc1cccc2c(C(=O)COC(=O)/C=C/c3ccc(O)c(OC)c3)c[nH]c12
[14]
  EC50: 8.62 µM (active)
[1]
  CC50: > 40 µM (active)
[15]
  EC50: > 150 µM (not active)
[16]
  EC50: 41.1 µM (active)

## CCCCNc1c(-c2ccc(SC3CCCCC3)c(OC)c2)nc2ccc(C)cn12
[17]
  CC50: > 40 µM (active)
[18]
  AC50: 3.1 µM (active)

## CCOc1ccc(S(=O)(=O)N(C(=O)c2ccco2)c2cc3sc(=O)oc3c3ccccc23)cc1
[1]
  CC50: 31.6 µM (active)
[19]
  AC50: 4.42 µM (active)

## C[C@@H]1CN([C@H](C)CO)C(=O)c2cccc(NC(=O)NC3CCCCC3)c2O[C@@H]1CN(C)Cc1ccc(-c2ccccc2)cc1
[9]
  AC50: 3.37 µM (active)

## N#Cc1c(N/C=C2\C(=O)NC(=O)N(Cc3ccco3)C2=O)sc2c1CCCC2
[20]
  IC50: 32.6 µM (active)
[12]
  IC50: > 50 µM (not active)

## CCCn1c(N=C(S)Nc2ccccc2)nc2ccccc21
[4]
  IC50: 112 µM (inactive)

## C[C@H]1CN([C@@H](C)CO)C(=O)Cc2cc(NS(=O)(=O)c3ccc(F)cc3)ccc2O[C@@H]1CN(C)Cc1ccc(C(F)(F)F)cc1
[9]
  AC50: 4.8 µM (active)

## COc1cc(OC)cc(-c2nnc(NC(=O)CCS(=O)(=O)c3ccc(C)cc3)o2)c1
[1]
  CC50: 32.4 µM (active)

## Cc1cc(C)cc(OCc2nc3cc(Br)c[nH]c-3n2)c1
[5]
  IC50: > 50 µM (not active)

## Cc1cccc(-n2c(SCCC(=O)O)nnc2-c2cccs2)c1C
[12]
  IC50: > 50 µM (not active)

## Cc1ccc(-c2nnc(S)n2/N=C/C=C\c2ccccc2[N+](=O)[O-])cc1
[5]
  IC50: 7.32 µM (active)

## Cc1ccc(S(=O)(=O)Nc2cccc3c2O[C@@H](CN(C)Cc2ccc(C(=O)Nc4ccccc4N)cc2)[C@H](C)CN([C@@H](C)CO)C3=O)cc1
[9]
  AC50: 3.2 µM (active)
